Laboratory results: ChEMBL document CHEMBL3272017, “Adrenergic sulfonanilides. 4. Centrally active beta-adrenergic agonists” (J Med Chem, 1976)
The source made the active and inactive calls. The rule behind the calls is not given here.

Key:
Mus musculus [1] = test: Analgesic activity in sc dosed mouse assessed as reduction in phenylalanine-induced writhing; assay type: functional; conditions: Mus musculus, sc; read-out: ED50
Rattus norvegicus [2] = test: Antagonism of morphine-induced analgesia in rat at 20 mg/kg, sc; assay type: functional; design: scale not given: the % may be the effect or the level left
Hypothalamus [3] = test: Drug uptake in Sprague-Dawley rat hypothalamus at 0.2 mg/kg, ip after 30 mins; assay type: ADME, organism-based; design: dose 0.2 mg/kg, route intraperitoneal; conditions: in vivo, 0.5 h
Hypothalamus [4] = test: Drug uptake in Sprague-Dawley rat hypothalamus at 0.3 mg/kg, ip after 30 mins; assay type: ADME, organism-based; design: dose 0.3 mg/kg, route intraperitoneal; conditions: in vivo, 0.5 h
Brain = test: Drug uptake in Sprague-Dawley rat whole brain at 0.2 mg/kg, ip after 30 mins; assay type: ADME, organism-based; design: dose 0.2 mg/kg, route intraperitoneal; conditions: in vivo, 0.5 h
Mus musculus [5] = test: Reversal of reserpine-induced ptosis in po dosed mouse; assay type: functional; conditions: Mus musculus, po; read-out: ED50
Mus musculus [6] = test: Inhibition of reserpine-induced ptosis in po dosed mouse; assay type: functional; conditions: Mus musculus, po; read-out: ED50
[7] = Activity at alpha-adrenoceptor in rat seminal vesicle assessed as potency for producing 50% of that of l-epinephrine-induced contraction relative to soterenol; assay type: tissue-based
Rattus norvegicus [8] = species on record: Rattus norvegicus; conditions: Tail
[9] = Blockade of alpha-adrenoceptor in rat seminal vesicle relative to phentolamine; assay type: tissue-based
Mus musculus [10] = test: Inhibition of reserpine-induced ptosis in po dosed mouse at 25 mg/kg, po; assay type: functional, organism-based; design: dose 25 mg/kg
Cavia porcellus [11] = species on record: Cavia porcellus; test: Agonist activity at beta-adrenoceptor in guinea pig tracheal spiral assessed as potency for 75% relaxation of spontaneous contraction relative to soterenol; assay type: tissue-based; conditions: Trachea
Rattus norvegicus [12] = species on record: Rattus norvegicus; test: Anorexiant activity in rat by free feeding method relative to d-amphetamine; assay type: functional
Rattus norvegicus [13] = test: Antagonism of morphine-induced analgesia in sc dosed rat
Canis familiaris = species on record: Canis familiaris; test: Anorexiant activity in dog by free feeding method relative to d-amphetamine; assay type: functional, Canis lupus familiaris
Rattus norvegicus [14] = test: Analgesic activity in sc dosed rat by tail flick test; assay type: functional
Cavia porcellus [15] = species on record: Cavia porcellus; test: Blockade of beta-adrenoceptor in guinea pig tracheal spiral relative to sotalol; assay type: tissue-based; conditions: Trachea

## Cl.Oc1ccc(CCNC2CC2)cc1O
Mus musculus [1]
  ED50: > 6 mg/kg
Rattus norvegicus [2]; route subcutaneous
  Activity: 32.8%

## CCN(CC(O)c1ccc(O)c(NS(C)(=O)=O)c1)C1CC1.Cl (stereo not given)
Mus musculus [1]
  ED50: > 6 mg/kg
Rattus norvegicus [2]
  Activity: inactive

## CS(=O)(=O)Nc1cc(C(O)CNC2CC2)ccc1O.Cl (stereo not given)
Hypothalamus [3]
  Drug uptake: Not Active
Hypothalamus [4]
  Drug uptake: Active
Brain
  Drug uptake: Not Active

## CC(C)NCC(O)c1ccc(O)c(NS(C)(=O)=O)c1 (stereo not given) [SOTERENOL]
Mus musculus [5]
  ED50: 16.5 mg/kg
Mus musculus [1]
  ED50: > 40 mg/kg
Mus musculus [6]
  ED50: 7.6 mg/kg

## CC(C)(Cc1ccccc1)NCC(O)c1ccc(O)c(NS(C)(=O)=O)c1.Cl (stereo not given) [ZINTEROL HYDROCHLORIDE]
[7]
  fold change (FC): 0
Rattus norvegicus [8]
  ED50: inactive
[9]
  fold change (FC): 0.1
Mus musculus [10]
  inhibition: inactive
Cavia porcellus [11]
  fold change (FC): 7.9
Rattus norvegicus [12]
  fold change (FC): 11
Rattus norvegicus [13]
  ED50: 18.8 mg/kg
Canis familiaris
  fold change (FC): 11

## CN1CC[C@]23c4c5ccc(O)c4O[C@H]2[C@@H](O)C=C[C@H]3[C@H]1C5.CN1CC[C@]23c4c5ccc(O)c4O[C@H]2[C@@H](O)C=C[C@H]3[C@H]1C5.O=S(=O)(O)O
Mus musculus [1]
  ED50: 0.62 mg/kg
Rattus norvegicus [14]
  ED50: 1.9 mg/kg

## CC(C)NCC(O)c1ccc(O)c(NS(C)(=O)=O)c1 (stereo not given)
Rattus norvegicus [8]
  ED50: inactive
Rattus norvegicus [2]
  Activity: inactive

## CN(C)S(=O)(=O)Nc1cc(C(O)CNC2CC2)ccc1O.Cl (stereo not given)
Mus musculus [5]
  ED50: 1.3 mg/kg
Mus musculus [1]
  ED50: 1.7 mg/kg
Rattus norvegicus [14]
  ED50: 50 mg/kg
Cavia porcellus [11]
  fold change (FC): 0.028
Rattus norvegicus [13]
  ED50: 0.72 mg/kg
Mus musculus [6]
  ED50: 0.94 mg/kg

## CS(=O)(=O)Nc1cc(O)cc(C(O)CNC2CC2)c1.Cl (stereo not given)
[7]
  Activity: Not Active
Cavia porcellus [11]
  Activity: inactive

## CN(C)CCCN1c2ccccc2CCc2ccccc21.Cl [IMIPRAMINE HYDROCHLORIDE]
Mus musculus [5]
  ED50: > 320 mg/kg
Mus musculus [6]
  ED50: 4.97 mg/kg

## CCOC(CNC1CC1)c1ccc(O)c(NS(C)(=O)=O)c1.Cl (stereo not given)
Mus musculus [5]
  ED50: 9.6 mg/kg
Mus musculus [1]
  ED50: > 6 mg/kg
Rattus norvegicus [2]
  Activity: inactive
Mus musculus [6]
  ED50: 35 mg/kg

## CS(=O)(=O)Nc1ccc(C(O)CNC2CC2)cc1 (stereo not given)
Rattus norvegicus [2]
  Activity: inactive

## CC(C)(Cc1ccccc1)NCCc1ccc(O)c(NS(C)(=O)=O)c1
Rattus norvegicus [2]
  Activity: inactive
Cavia porcellus [11]
  fold change (FC): 0.31

## CS(=O)(=O)Nc1cc(C(O)CNC2CC2)cc(Cl)c1O.Cl (stereo not given)
[7]
  fold change (FC): 4.9
Mus musculus [5]
  ED50: 0.082 mg/kg
Mus musculus [1]
  ED50: > 6 mg/kg
Rattus norvegicus [2]; route subcutaneous
  Activity: 20.8%
Cavia porcellus [11]
  fold change (FC): 0.048
Mus musculus [6]
  ED50: 0.072 mg/kg

## CS(=O)(=O)Nc1cc(C(O)CNC2CC2)ccc1O (single isomer, unassigned; (-))
Cavia porcellus [11]
  fold change (FC): 1.9

## CCC(Cc1ccc(O)c(NS(C)(=O)=O)c1)NC1CC1.Cl (stereo not given)
Mus musculus [1]
  ED50: > 6 mg/kg
Cavia porcellus [11]
  fold change (FC): 0.0013

## C[C@H](NC1CC1)[C@H](O)c1cccc(NS(C)(=O)=O)c1.Cl (relative stereo)
Mus musculus [1]
  ED50: > 6 mg/kg
Cavia porcellus [15]
  fold change (FC): 0.1

## CS(=O)(=O)Nc1cccc(C(O)CNC2CC2)c1.Cl (stereo not given)
Mus musculus [5]
  ED50: 0.8 mg/kg
Mus musculus [1]
  ED50: > 6 mg/kg
Cavia porcellus [11]
  fold change (FC): < 0.01
Cavia porcellus [15]
  fold change (FC): 0.05
Mus musculus [6]
  ED50: 1 mg/kg
